{"source": "patent US9115079B2", "about": "“NDM inhibitor” (priority 2011, dated 2015)", "note": "Structures can show the parent of a compound that is named as a salt.", "data": [{"target": "NDM-1 (Klebsiella pneumoniae, UniProt C7C422)", "sequence (C7C422 29-270, looked up)": "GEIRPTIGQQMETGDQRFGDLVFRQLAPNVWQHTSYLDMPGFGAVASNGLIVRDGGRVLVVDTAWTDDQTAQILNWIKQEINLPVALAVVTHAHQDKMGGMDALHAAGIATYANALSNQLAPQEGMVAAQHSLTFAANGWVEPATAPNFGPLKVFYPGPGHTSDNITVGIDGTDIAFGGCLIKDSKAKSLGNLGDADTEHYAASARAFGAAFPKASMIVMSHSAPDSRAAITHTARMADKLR", "assay": "biochemical", "details": "NDM-1 2.5 nM, 100 μM imipenem as substrate, 100 μM ZnSO4, pH 7.5, 30° C.", "method": "Amplification was carried out by a polymerase chain reaction (PCR) with Pyrobest DNA polymerase (Takara Bio) in which a plasmid having an NDM-1 gene sequence (GenBank Accession number: FN396876) synthesized by Life Technologies Japan Ltd. (consignment synthesis) was used as a template and two primers ([…] and […]) were used. The amplified DNA fragments were digested with restriction enzymes Nco I and Xho I and were incorporated in a vector pET-28a(+) to acquire a recombinant plasmid. The plasmid was transformed into E. coli BL21(DE3) (Novagen), and the transformants thus obtained were grown to an absorbance at 600 nm of about 0.7 in 0.8 L of an SB medium (1.2% (w/v) bacto tryptone, 2.4% (w/v) yeast extract, 0.5% (v/v) glycerol, 0.072 M dipotassium hydrogenphosphate, and 0.028 M potassium dihydrogenphosphate) containing 30 μg/ml kanamycin. Isopropyl-β-D-thiogalactopyranoside was added to a final concentration of 1 mM, and induction was carried out at 20° C. overnight, followed by harvesting with a centrifuge.\n50 mM HEPES (pH 7.5), 20 μg/ml BSA, 100 μM ZnSO4, 2% DMSO, and 100 μM imipenem as a substrate (these concentrations being final concentration) were added into a 1 ml quartz cell. […] A plurality of inhibitor concentrations were studied, a sigmoid curve was prepared from each inhibitory activity, and IC50 values were calculated.", "units": {"IC50": "µM"}, "values": [{"smiles": "CCC/C(C(=O)O)=C(\\CCC)C(=O)O", "note": "[Example 2, Disodium 2,3-di-n-propylmaleate]", "IC50": "10 to 30"}, {"smiles": "CC/C(C(=O)O)=C(\\Cc1ccccc1)C(=O)O", "note": "[Example 4, Disodium 2-benzyl-3-ethylmaleate]", "IC50": "10 to 30"}, {"smiles": "CC/C(C(=O)O)=C(\\Cc1ccc(O)cc1)C(=O)O", "note": "[Example 5, Disodium 3-ethyl-2-(4-hydroxybenzyl)maleate]", "IC50": "< 10"}, {"smiles": "O=C(O)/C(Cc1ccccc1)=C(/Cc1ccccc1)C(=O)O", "note": "[Example 6, Disodium 2,3-dibenzylmaleate]", "IC50": "< 10"}, {"smiles": "O=C(O)/C(CCc1ccccc1)=C(/Cc1ccccc1)C(=O)O", "note": "[Example 7, Disodium 2-benzyl-3-phenethylmaleate]", "IC50": "< 10"}, {"smiles": "O=C(O)/C(CCc1ccccc1)=C(/CCc1ccccc1)C(=O)O", "note": "[Example 8, Disodium 2,3-diphenethylmaleate]", "IC50": "< 10"}, {"smiles": "C/C(C(=O)O)=C(/C(=O)O)C(C)C", "note": "[Example 9, Disodium 2-isopropyl-3-methylmaleate]", "IC50": "30 to 100"}, {"smiles": "CC/C(C(=O)O)=C(/C(=O)O)C(C)C", "note": "[Example 10, Disodium 3-ethyl-2-isopropylmaleate]", "IC50": "10 to 30"}, {"smiles": "CC(C)/C(C(=O)O)=C(/C(=O)O)C(C)C", "note": "[Example 11, Disodium 2,3-diisopropylmaleate]", "IC50": "10 to 30"}, {"smiles": "CC(C)/C(C(=O)O)=C(\\Cc1ccccc1)C(=O)O", "note": "[Example 12, Disodium 3-benzyl-2-isopropylmaleate]", "IC50": "10 to 30"}, {"smiles": "Cc1ccccc1C/C(C(=O)O)=C(/C(=O)O)C(C)C", "note": "[Example 13, Disodium 2-isopropyl-3-(2-methylphenyl)methylmaleate]", "IC50": "10 to 30"}, {"smiles": "CC/C(C(=O)O)=C(/C(=O)O)C1CCCC1", "note": "[Example 14, Disodium 2-cyclopentyl-3-ethylmaleate]", "IC50": "< 10"}, {"smiles": "CC(C)/C(C(=O)O)=C(/C(=O)O)C1CCCC1", "note": "[Example 15, Disodium 2-cyclopentyl-3-isopropylmaleate]", "IC50": "< 10"}, {"smiles": "O=C(O)/C(Cc1ccccc1)=C(\\C(=O)O)C1CCCC1", "note": "[Example 16, Disodium 3-benzyl-2-cyclopentylmaleate]", "IC50": "< 10"}, {"smiles": "O=C(O)/C(=C(\\C(=O)O)C1CCCC1)C1CCCC1", "note": "[Example 17, Disodium 2,3-dicyclopentylmaleate]", "IC50": "< 10"}, {"smiles": "CC(C)/C(C(=O)O)=C(/C(=O)O)C1Cc2ccccc2C1", "note": "[Example 18, Disodium 2-(2,3-dihydro-1H-inden-2-yl)-3-isopropylmaleate]", "IC50": "< 10"}, {"smiles": "CC(C)/C(C(=O)O)=C(/C(=O)O)C1CCCCC1", "note": "[Example 19, Disodium 2-cyclohexyl-3-isopropylmaleate]", "IC50": "< 10"}, {"smiles": "CC(C)/C(C(=O)O)=C(/C(=O)O)[C@H]1CC[C@@H](O)CC1", "note": "[Example 21, Disodium 2-(cis-4-hydroxycyclohexyl)-3-isopropylmaleate]", "IC50": "< 10"}, {"smiles": "CC(C)/C(C(=O)O)=C(/C(=O)O)C1CCOCC1", "note": "[Example 22, Disodium 3-isopropyl-2-(tetrahydropyran-4-yl)maleate]", "IC50": "10 to 30"}, {"smiles": "CC(C)/C(C(=O)O)=C(\\Cc1cccnc1)C(=O)O", "note": "[Example 23, Disodium 2-isopropyl-3-[(pyridine-3-yl)methyl]maleate]", "IC50": "30 to 100"}, {"smiles": "CC/C(C(=O)O)=C(\\SC(C)C)C(=O)O", "note": "[Example 24, Disodium 3-ethyl-2-isopropylthiomaleate]", "IC50": "30 to 100"}, {"smiles": "CC(C)/C(C(=O)O)=C(\\Cc1ccc(C(=O)O)cc1)C(=O)O", "note": "[Example 25, Trisodium 2-(4-carboxybenzyl)-3-isopropylmaleate]", "IC50": "10 to 30"}, {"smiles": "CC(C)/C(C(=O)O)=C(\\Cc1ccc(C(N)=O)cc1)C(=O)O", "note": "[Example 26, Disodium 2-(4-carbamoylbenzyl)-3-isopropylmaleate]", "IC50": "10 to 30"}, {"smiles": "CC(C)/C(C(=O)O)=C(\\Cc1ccc(C(=O)N2CCOCC2)cc1)C(=O)O", "note": "[Example 27, Disodium 2-isopropyl-3-[4-(morpholine-1-carbonyl)benzyl]maleate]", "IC50": "10 to 30"}, {"smiles": "CC(C)/C(C(=O)O)=C(\\Cc1ccc(C(=O)N2CCC(O)CC2)cc1)C(=O)O", "note": "[Example 28, Disodium 2-[4-(4-hydroxypiperidine-1-carbonyl)benzyl]-3-isopropylmaleate]", "IC50": "30 to 100"}, {"smiles": "CC(C)/C(C(=O)O)=C(\\Cc1ccc(C(=O)NCC(N)=O)cc1)C(=O)O", "note": "[Example 29, Disodium 2-[4-(2-amino-2-oxoethylcarbamoyl)benzyl]-3-isopropylmaleate]", "IC50": "< 10"}, {"smiles": "COc1ccc(C/C(C(=O)O)=C(/C(=O)O)C(C)C)cc1", "note": "[Example 30, Disodium 2-isopropyl-3-(4-methoxybenzyl)maleate]", "IC50": "< 10"}, {"smiles": "CC(C)/C(C(=O)O)=C(\\Cc1ccc(O)cc1)C(=O)O", "note": "[Example 31, Trisodium 2-(4-oxidobenzyl)-3-isopropylmaleate]", "IC50": "10 to 30"}, {"smiles": "CC(C)/C(C(=O)O)=C(\\Cc1ccc(OCC(=O)O)cc1)C(=O)O", "note": "[Example 32]", "IC50": "< 10"}, {"smiles": "CC(C)/C(C(=O)O)=C(\\Cc1ccc(OCC(N)=O)cc1)C(=O)O", "note": "[Example 33, Disodium 2-[4-(2-amino-2-oxoethoxy)benzyl]-3-isopropylmaleate]", "IC50": "< 10"}, {"smiles": "CC(C)/C(C(=O)O)=C(\\Cc1ccc(OCCN)cc1)C(=O)O", "note": "[Example 34, Disodium 2-[4-(2-aminoethoxy)benzyl]-3-isopropylmaleate]", "IC50": "< 10"}, {"smiles": "CC(C)/C(C(=O)O)=C(\\Cc1ccc(OCCn2ccnc2)cc1)C(=O)O", "note": "[Example 35, Disodium 2-{4-[2-(1H-imidazol-1-yl)ethoxy]benzyl}-3-isopropylmaleate]", "IC50": "< 10"}, {"smiles": "CC(C)/C(C(=O)O)=C(\\Cc1ccc(OC2CCNC2)cc1)C(=O)O", "note": "(stereo not shown) [Example 36, Disodium 2-isopropyl-3-[4-(pyrrolidin-3-yloxy)benzyl]maleate]", "IC50": "< 10"}, {"smiles": "CC(C)/C(C(=O)O)=C(\\Cc1ccc(OCCNC(=N)N)cc1)C(=O)O", "note": "[Example 37, Disodium 2-[4-(2-guanidinoethoxy)benzyl]-3-isopropyl maleate]", "IC50": "30 to 100"}, {"smiles": "O=C(O)/C(=C(\\C(=O)O)[C@H]1CC[C@@H](O)CC1)C1CCCC1", "note": "[Example 38, Disodium 2-cyclopentyl-3-(cis-4-hydroxycyclohexyl)maleate]", "IC50": "< 10"}, {"smiles": "O=C(O)/C(=C(\\C(=O)O)[C@H]1CC[C@@H](O)CC1)[C@H]1CC[C@@H](O)CC1", "note": "[Example 39, Disodium 2,3-bis(cis-4-hydroxycyclohexyl)maleate]", "IC50": "< 10"}, {"smiles": "O=C(O)/C(=C(\\C(=O)O)C1CCOCC1)C1CCOCC1", "note": "[Example 40, Disodium 2,3-bis(tetrahydro-2H-pyran-4-yl)maleate]", "IC50": "30 to 100"}]}]}
